{
  "source": "paper PMC10916291",
  "about": "“Cocrystals of a coumarin derivative: an efficient approach towards anti-leishmanial cocrystals against MIL-resistant Leishmania tropica” (IUCrJ, 2024)",
  "key": {"[1]": {"test": "Thermal analysis (DSC and TGA)", "format": "physicochemical", "settings": "heating rate 10°C min^-1, dry N2", "experimental": "DSC and TGA were performed on a LINSEIS STA PT1600 with heating rate of 10°C min^−1. About 20–25 mg of samples were crimped in a ceramic pan and scanned from 30 to 600°C under dry N2 gas purging. The Linseis TA software (version 1.0; Linseis Messgeraete GmbH) was employed for collecting data."}, "[2]": {"test_system": "3T3 (normal mouse fibroblast) cell line", "test": "in vitro", "experimental": "(§1) In vitro biological activities of CU, coformers and synthesized cocrystals 2–6 were evaluated for their MIL-resistant L. tropica promastigotes and cytotoxicity against […]. Detailed methodologies of the biological assays are provided in the supporting information.\n(§2) 2. Cytotoxicity assay Protocol:\n(§3) Cy totoxicity o f compounds was evaluated in 96-well flat-bo ttomed micro plates by using the standard MTT (3-[4, 5-dimethylthiazole-2-y l]-2 , 5-d iph eny l-tetrazolium bromide) colorimetric assay. For this purpose, 3T3 (mouse fibroblast) cells were cultured in Dulb ecco’s Modified Eagle Medium, supplemented with 5% of fetal bovine serum (FBS), 100 IU/mL of penicillin and 100 µg / m L of strep tomy cin in 75 cm2 flasks, and kept in 5% CO2 incubator at 37° C.\n(§4) Exponentially growing cells were harvested, counted with haemocytometer, and diluted with a particular medium. Cell culture with the concentration of 5x10^4 cells/mL was p rep ared and introduced (100 µL/well) into 96-well plates. After overnight incubation, medium was removed and 200 µL of fresh medium was added with different concentrations of compounds (1-30 µM).\n(§5) After 48 hrs. 200 µL MTT (0.5 mg/mL) was added to each well, and incubated further for 4 hrs.\n(§6) Subsequently, 100 µL of DMSO was added to each well. The extent of MTT reduction to formazan within cells was calculated by measuring the absorbance at 540 nm, using a micro-plate reader (Spectra Max p lus, Molecular Devices, USA). The cy totoxicity was recorded as a concentration causing 50% growth inhibition (IC50) of 3T3 cells. The percent inhibition was calculated by using the fo llo wing formula:\n(§7) % Inhibition = 100-((mean of O.D of test compound – mean of O.D of negative control)/ (mean of O.D. of positive control – mean of O.D of negative control)*100).\n(§8) The results (% inhibition) were processed by using Soft- Max Pro software (Molecular Devices, […]"}, "[3]": {"test_system": "MIL-resistant L. tropica promastigotes", "test": "microbe, parasite or virus in culture", "format": "cell-based, Leishmania tropica", "settings": "for IC50: Leishmania tropica, 72 h, read-out: Anti-leishmanial activity against MIL-resistant L. tropica via MTT assay (IC50 = µM ± SEM)", "experimental": "as §1\n(§9) Biological activities evaluations\n1. MIL-resistant L. tropica assay protocol\nMiltefosine (hexadecylphosphocholine) (LEAP Chem), RPMI-1640 culture medium (Gibco), supplemented with 10% (v/v) heat-inactivated fetal bovine serum (FBS) (Gibco), 2 mM L-glutamine, 1% penicillin/ streptomycin (Sigma), DMSO (ALC labscan), and Trypan blue […]\nClinical Isolate and Generation of MIL resistant line:\nClinical isolate (L. tropica promastigote) from the endemic area of Islamabad (Pakistan) was ob tained from a patient. Promastigote cultures were maintained at 26 °C in RPMI medium, containing 15 % FBS and 1 % penicillin–streptomycin mixture. Clinical isolate was characterized by sequencing.\n(§10) Generation of Miltefosine-unresponsive strain was carried under high MIL pressure by in vitro passage with stepwise increase in the MIL concentration. At each step, parasites were cultured, and passaged every 3–4 days at an initial concentration of 5x10^5 promastigotes/mL in order to achieve the stable growth, as compared to the wild type isolate. Growth rates were measured for resistant populations and compared with the WT strain. Parasites were counted at an initial concentration of 5 x 10^5 parasites/mL, and growth was measured daily using a Neubauer chamber until the population reached stationary phase. Fu rth ermore, the fluorescence microscopic investigations via DAPI stain were also carried out to supplement the study, and for […]\nPromastigote Growth Inhibition Assay\n(IC50) of resistant cell proliferation concerning untreated controls, the MTT assay was employed.\nThe promastigotes in their log phase were used in 96-well plates. 1 × 106 wild-type and resistant […]\npromastigotes were dispensed in 96-well plates, and incubated with tested compounds at a range concentration of 200–10 μM (stock concentration 1mg/mL and the working con centrations started from 250 µg/mL) at 27°C for 72 h. After incubation of 72 h, MTT dye (3-(4,5-dimethylthiazol-2-yl)-2,5-diphenyl-2H-tetrazolium bromide) was added and further incubate it for 3–4 h. Amphotericin B, pantamidine and miltefosine were used as th e positive control, untreated promastigotes were used as negative control moreover DMSO control was also added in the study as a stock solution of the compounds that were prepared in DMSO. All the experiments were performed in triplicates. After completion of the experiment the absorbance by Multiskan ascent plate reader at 452 nm and percent inhibition was calculated by the following […]\nCytotoxic concentration (%) = [100- (Absorbance of test)/ (Absorbance of solv ent con trol) ×100]"}, "in vitro": {"test": "in vitro", "settings": "mouse", "experimental": "as §1, §2, §3, §4, §5, §6, §7, §8"}, "[4]": {"test_system": "MIL-resistant L. tropica promastigotes", "test": "Growth of MIL-resistant L. tropica line generated by step-wise selection (trypan blue count)", "format": "cell-based, Leishmania tropica", "settings": "step-wise selection of MIL up to 196 µM, Fig. 9", "experimental": "L. tropica MIL-unresponsive/resistant parasites were developed and maintained using a step-wise selection of the drug MIL up to a concentration of 196 µM. No significant differences in growth patterns were observed between WT- and MIL-resistant strains.\nFigure 9 MIL-resistant L. tropica line generated by step-wise selection. 1 × 10^6 log-phase promastigotes were incubated in the presence of a range of drug concentrations. The surviving cells were quantified with trypan blue dye. Populations of parasites were grown in increasing concentrations of MIL, showing increased resistance to MIL. Bars of both resistant and WT parasites represent the more or less similar growth patterns.\nas §9\n1. MIL-resistant L. tropica assay protocol […]\nas §10, with “At each step, parasites were cultured, and passaged every 3–4 days at an initial concentration of 5x10^5 promastigotes/mL in order to achieve the stable growth, as compared to the wild type isolate.” left out"}},
  "note": "Where two headings read alike, the source gives them in different places.",
  "data": [
    {"compound": "O=C(O)c1cc2ccccc2oc1=O", "note": "[Cocrystal 1a, Coumarin-3-carboxylic acid]", "values": [
      {"measurement": "Thermal stability up to (TGA/DSC)", "setting": "[1]", "value": 191.78, "unit": "°C"},
      {"measurement": "Cytotoxic activity 3T3 cell line (IC50 = µM ± SEM)", "setting": "[2]", "value": "Non-cytotoxic"}
    ]},
    {"compound": "Nc1ncccc1Br", "note": "[Cocrystal 1b, 2-amino-3-bromopyridine]", "values": [
      {"measurement": "Thermal stability up to (TGA/DSC)", "setting": "[1]", "value": 67.29, "unit": "°C"},
      {"measurement": "Cytotoxic activity 3T3 cell line (IC50 = µM ± SEM)", "setting": "[2]", "value": "Non-cytotoxic"}
    ]},
    {"compound": "Nc1ccc(C(F)(F)F)cn1", "note": "[Cocrystal 1c, 2-amino-5-(trifluoromethyl)-pyridine]", "values": [
      {"measurement": "Thermal stability up to (TGA/DSC)", "setting": "[1]", "value": 48.38, "unit": "°C"},
      {"measurement": "Cytotoxic activity 3T3 cell line (IC50 = µM ± SEM)", "setting": "[2]", "value": "Non-cytotoxic"}
    ]},
    {"compound": "Nc1ccc(C(=O)O)cc1", "note": "[Cocrystal 1e, p-aminobenzoic acid]", "values": [
      {"measurement": "Cytotoxic activity 3T3 cell line (IC50 = µM ± SEM)", "setting": "[2]", "value": "Non-cytotoxic"}
    ]},
    {"compound": "Nc1nc[nH]n1", "note": "[Cocrystal 1f, amitrole]", "values": [
      {"measurement": "Cytotoxic activity 3T3 cell line (IC50 = µM ± SEM)", "setting": "[2]; 3T3 normal mouse fibroblast, MTT, 48 h, 1-30 µM", "value": "Non-cytotoxic"},
      {"measurement": "IC50", "setting": "[3]", "value": "78 ± 0.96", "unit": "µM"},
      {"measurement": "Percent Inhibitions", "setting": "[3]; Table S1, concentration 46.95 (unit not given)", "value": 44.0, "unit": "%"},
      {"measurement": "Percent Inhibitions", "setting": "[3]; Table S1, concentration 93.88 (unit not given)", "value": 53.1, "unit": "%"},
      {"measurement": "Percent Inhibitions", "setting": "[3]; Table S1, concentration 187 (unit not given)", "value": 63.01, "unit": "%"}
    ]},
    {"compound": "C[C@@H]1C[C@@H]([C@H](O)CC2CC(=O)NC(=O)C2)C(=O)[C@@H](C)C1", "note": "[cyclohexamide, reference compound]", "values": [
      {"measurement": "IC50 at 48 h", "setting": "in vitro", "value": "0.8 ± 0.14", "unit": "µM"}
    ]},
    {"compound": "CCCCCCCCCCCCCCCCOP(=O)([O-])OCC[N+](C)(C)C", "note": "[miltefosine, hexadecylphosphocholine, reference compound]", "values": [
      {"measurement": "Inhibitory effect on cell proliferation of MIL-resistant L. tropica", "setting": "[4]", "value": "no inhibitory effects"},
      {"measurement": "IC50", "setting": "[3]", "value": "169.55 ± 0.078", "unit": "µM"}
    ]}
  ]
}
